# Target: T1, recombinant human mPGES-1 (Homo sapiens, UniProt O14684)
# T1 construct: made in house; host or cells: Rosetta E. coli (microsomal/membrane fraction)
# T1 sequence (O14684 1-152): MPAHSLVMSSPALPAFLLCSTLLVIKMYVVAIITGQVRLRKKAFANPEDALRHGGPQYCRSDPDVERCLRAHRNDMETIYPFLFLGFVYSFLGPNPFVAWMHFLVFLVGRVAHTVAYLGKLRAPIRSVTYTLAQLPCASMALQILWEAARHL
# Experiment: mPGES-1 inhibition test (microsomes, HTRF detection of PGE2)
# Format: biochemical
# Protocol: Microsomes from Rosetta E. coli bacteria expressing recombinant human mPGES-1 is dissolved in 0.1 M KPi pH 7.4 buffer containing 2.5 mM GSH. 50 μl of the enzyme is subsequently dispensed in a 384-well plate. 0.5 μl of the inhibitor dissolved in DMSO at is thereafter added to each well and incubated for 25 minutes at room temperature.
# Subsequently, 2 μl of PGH2 dissolved in an appropriate solvent is added to each well and after one minute the acidified stop solution containing FeCl2 is added. 4 μl of the total volume is transferred to a separate plate and diluted 750-fold in two separate steps before HTRF detection of PGE2.
# The HTRf detection is performed by the use of a commercially available kit from CisBio essentially according to the manufacturer's protocol. Briefly, 10 μl of the diluted sample is transferred to a white 384-well plate. 5 μl of d2 and 5 μl Eu3+-Cryptate labeled anti-PGE2 is added to each well containing samples by the use of a Multidrop. The plate is covered with a plastic self-adhesive film, centrifuged at 1200 rpm for 1 minute and subsequently stored at +4° C. over night.
# After over night incubation the fluorescence is measured by the use of an appropriate microplate reader. The fluorescence of europium cryptate, and d2 are measured using the following excitation and emission wavelength, europium cryptate: λmax^ex=307 nm, λmax^em=620 nm and d2: λmax^ex=620 nm, λmax^em=665 nm), respectively. The extent of the specific FRET is measured as a ratio of the emission intensity at 665 nm vs. that at 620 nm. A standard curve using synthetic PGE2 is used to quantify the amount of PGE2 in unknown samples.
row,inhibition at 10 µM,SMILES
1,97%,"O=C(NCc1ncccc1C(F)(F)F)c1cc2[nH]c(Nc3c(Cl)cccc3Cl)nc2cn1 [Example 509, 2-(2,6-Dichlorophenylamino)-N-((3-trifluoromethyl-pyridin-2-yl)methyl)-1H-imidazo[4,5-c]pyridine-6-carboxamide]"
2,100%,"Cn1c(Nc2c(Cl)cncc2Cl)nc2cc(C(=O)N[C@H]3CC[C@H](C(F)(F)F)CC3)ncc21 [Example 515, 2-(3,5-Dichloropyridin-4-ylamino)-3-methyl-N-((1r,4r)-4-trifluoromethyl-cyclohexyl)-3H-imidazo[4,5-c]pyridine-6-carboxamide]"
3,100%,"Cn1c(Nc2c(F)cccc2Cl)nc2cc(C(=O)NCc3ncccc3C3CC3)ncc21 [Example 522, 2-(2-Chloro-6-fluorophenylamino)-N-((3-cyclopropylpyridin-2-yl)-methyl)-3-methyl-3H-imidazo[4,5-c]pyridine-6-carboxamide]"
4,96%,"Cn1c(Nc2c(Cl)cccc2Cl)nc2cc(C(=O)NCc3ncccc3C(F)(F)F)ncc21 [Example 528, 2-(2,6-Dichlorophenylamino)-3-methyl-N-((3-trifluoromethyl-pyridin-2-yl)-methyl)-3H-imidazo[4,5-c]pyridine-6-carboxamide]"
5,95%,"Cn1c(Nc2c(Cl)cncc2Cl)nc2cc(C(=O)NCc3ncccc3C(F)(F)F)ncc21 [Example 550, 2-(3,5-Dichloropyridin-4-ylamino)-3-methyl-N-((3-trifluoromethyl-pyridin-2-yl)-methyl)-3H-imidazo[4,5-c]pyridine-6-carboxamide]"
6,100%,"Cc1cc(C)nc(NC(=O)c2cc3[nH]c(Nc4c(Cl)cccc4Cl)nc3cn2)c1 [Example 716, 2-(2,6-Dichlorophenylamino)-N-(4,6-dimethyl-pyridin-2-yl)-1H-imidazo[4,5-c]pyridine-6-carboxamide]"
7,100%,"Cc1cnc(NC(=O)c2cc3[nH]c(Nc4c(Cl)cccc4Cl)nc3cn2)cc1C [Example 717, 2-(2,6-Dichlorophenylamino)-N-(4,5-dimethyl-pyridin-2-yl)-1H-imidazo[4,5-c]pyridine-6-carboxamide]"
8,100%,"Cc1cc(NC(=O)c2cc3[nH]c(Nc4c(Cl)cccc4Cl)nc3cn2)ncc1Cl [Example 718, 2-(2,6-Dichlorophenylamino)-N-(5-chloro-4-methyl-pyridin-2-yl)-1H-imidazo[4,5-c]pyridine-6-carboxamide]"
9,100%,"Cc1cc(NC(=O)c2cc3[nH]c(Nc4c(Cl)cccc4Cl)nc3cn2)ncc1F [Example 719, 2-(2,6-Dichlorophenylamino)-N-(5-fluoro-4-methyl-pyridin-2-yl)-1H-imidazo[4,5-c]pyridine-6-carboxamide]"
10,100%,"O=C(Nc1ccc(C(F)(F)F)cn1)c1cc2[nH]c(Nc3c(Cl)cccc3Cl)nc2cn1 [Example 720, 2-(2,6-Dichlorophenylamino)-N-(5-trifluoromethyl-pyridin-2-yl)-1H-imidazo[4,5-c]pyridine-6-carboxamide]"
11,100%,"O=C(Nc1ccc(Br)cc1)c1cc2[nH]c(Nc3c(Cl)cccc3Cl)nc2cn1 [Example 722, 2-(2,6-Dichlorophenylamino)-N-(4-bromo-phenyl)-1H-imidazo[4,5-c]pyridine-6-carboxamide]"
12,100%,"Cc1cc(C(F)(F)F)cc(NC(=O)c2cc3[nH]c(Nc4c(Cl)cccc4Cl)nc3cn2)n1 [Example 723, 2-(2,6-Dichlorophenylamino)-N-(6-methyl-4-trifluoromethyl-pyridin-2-yl)-1H-imidazo[4,5-c]pyridine-6-carboxamide]"
13,100%,"Cc1cnc(NC(=O)c2cc3nc(Nc4c(Cl)cccc4Cl)n(C)c3cn2)cc1C [Example 724, 2-(2,6-Dichlorophenylamino)-3-methyl-N-(4,5-dimethyl-pyridin-2-yl)-3H-imidazo[4,5-c]pyridine-6-carboxamide]"
14,100%,"O=C(Nc1ccc(C2CC2)cn1)c1cc2[nH]c(Nc3c(Cl)cccc3Cl)nc2cn1 [Example 725, 2-(2,6-Dichlorophenylamino)-N-(5-cyclopropyl-pyridin-2-yl)-1H-imidazo[4,5-c]pyridine-6-carboxamide]"
15,100%,"Cc1cc(NC(=O)c2cc3nc(Nc4c(Cl)cccc4Cl)n(C)c3cn2)ncc1Cl [Example 726, 2-(2,6-Dichlorophenylamino)-3-methyl-N-(5-chloro-4-methyl-pyridin-2-yl)-3H-imidazo[4,5-c]pyridine-6-carboxamide]"
16,99%,"O=C(Nc1cc(C(F)(F)F)ccn1)c1cc2[nH]c(Nc3c(F)cccc3C(F)(F)F)nc2cn1 [Example 727, 2-(2-Fluoro-6-trifluoromethyl-phenylamino)-N-(4-trifluoromethyl-pyridin-2-yl)-1H-imidazo[4,5-c]pyridine-6-carboxamide]"
17,98%,"O=C(Nc1cc(C(F)(F)F)ccn1)c1cc2[nH]c(Nc3c(Cl)cccc3C(F)(F)F)nc2cn1 [Example 728, 2-(2-Chloro-6-trifluoromethyl-phenylamino)-N-(4-trifluoromethyl-pyridin-2-yl)-1H-imidazo[4,5-c]pyridine-6-carboxamide]"
18,100%,"O=C(Nc1cc(C(F)(F)F)ccn1)c1cc2[nH]c(Nc3c(F)cccc3Cl)nc2cn1 [Example 729, 2-(2-Chloro-6-fluoro-phenylamino)-N-(4-trifluoromethyl-pyridin-2-yl)-1H-imidazo[4,5-c]pyridine-6-carboxamide]"
19,100%,"O=C(Nc1cc(C(F)(F)F)ccn1)c1cc2[nH]c(Nc3c(Cl)cc(F)cc3Cl)nc2cn1 [Example 730, 2-(2,6-Dichloro-4-fluoro-phenylamino)-N-(4-trifluoromethyl-pyridin-2-yl)-1H-imidazo[4,5-c]pyridine-6-carboxamide]"
20,100%,"O=C(Nc1cc(C(F)(F)F)ccn1)c1cc2[nH]c(Nc3c(F)cc(F)cc3Cl)nc2cn1 [Example 731, 2-(2-Chloro-4,6-difluoro-phenylamino)-N-(4-trifluoromethyl-pyridin-2-yl)-1H-imidazo[4,5-c]pyridine-6-carboxamide]"
21,100%,"O=C(Nc1ccc(Br)cc1)c1cc2[nH]c(Nc3c(Cl)cncc3Cl)nc2cn1 [Example 732, 2-(3,5-Dichloro-pyridin-4-yl-amino)-N-(4-bromo-phenyl)-1H-imidazo[4,5-c]pyridine-6-carboxamide]"
22,99%,"Cc1cc(C(F)(F)F)cc(NC(=O)c2cc3[nH]c(Nc4c(Cl)cncc4Cl)nc3cn2)n1 [Example 733, 2-(3,5-Dichloro-pyridin-4-yl-amino)-N-(6-methyl-4-trifluoromethyl-pyridin-2-yl)-1H-imidazo[4,5-c]pyridine-6-carboxamide]"
23,99%,"Cn1c(Nc2cnccc2C(F)(F)F)nc2cc(C(=O)Nc3cc(C(F)(F)F)ccn3)ncc21 [Example 734, 2-(4-Trifluoromethyl-pyridin-3-ylamino)-3-methyl-N-(4-trifluoromethyl-pyridin-2-yl)-3H-imidazo[4,5-c]pyridine-6-carboxamide]"
24,99%,"Cc1cnc(NC(=O)c2cc3[nH]c(Nc4c(Cl)cncc4Cl)nc3cn2)cc1C1CC1 [Example 735, 2-(3,5-Dichloro-pyridin-4-yl-amino)-N-(4-cyclopropyl-5-methyl-pyridin-2-yl)-1H-imidazo[4,5-c]pyridine-6-carboxamide]"
25,98%,"O=C(Nc1cc(C(F)(F)F)cc(Cl)n1)c1cc2[nH]c(Nc3c(Cl)cncc3Cl)nc2cn1 [Example 736, 2-(3,5-Dichloro-pyridin-4-yl-amino)-N-(6-chloro-4-trifluoromethyl-pyridin-2-yl)-1H-imidazo[4,5-c]pyridine-6-carboxamide]"
26,97%,"CC(C)c1ccc(NC(=O)c2cc3[nH]c(Nc4c(Cl)cncc4Cl)nc3cn2)nc1 [Example 737, 2-(3,5-Dichloro-pyridin-4-yl-amino)-N-(5-isopropyl-pyridin-2-yl)-1H-imidazo[4,5-c]pyridine-6-carboxamide]"
27,100%,"O=C(Nc1cc(C2CCC2)ccn1)c1cc2[nH]c(Nc3c(Cl)cncc3Cl)nc2cn1 [Example 738, 2-(3,5-Dichloro-pyridin-4-yl-amino)-N-(4-cyclobutyl-pyridin-2-yl)-1H-imidazo[4,5-c]pyridine-6-carboxamide]"

row,SMILES,inhibition at 10 µM
1,"O=C(NCC(F)(F)C(F)(F)C(F)(F)C(F)(F)C(F)(F)C(F)(F)C(F)(F)F)c1cc2[nH]c(Nc3c(Cl)cccc3Cl)nc2cn1 [Example 721, 2-(2,6-Dichlorophenylamino)-N-(2,2,3,3,4,4,5,5,6,6,7,7,8,8,8-pentadecafluoro-octyl)-1H-imidazo[4,5-c]pyridine-6-carboxamide]",100%
